Columns and labels:
[1] = test system: AG3(T2AG3)3 (G4-Tel, telomeric G4) (DNA, G4) AGGGTTAGGGTTAGGGTTAGGG; test: UV-Vis titration; details: K+ 100 mM KCl, plus potassium phosphate, 20 mM phosphate, pH 6.8, ligand 2 μM
[2] = test system: AG3(T2AG3)3 (G4-Tel, telomeric G4) (DNA, G4) AGGGTTAGGGTTAGGGTTAGGG; test: G4-FID fluorescence displacement; details: K+ 100 mM KCl, plus potassium phosphate, PBS pH 6.8, 25 °C, thiazole orange displaced
[3] = test system: AG3(T2AG3)3 (G4-Tel, telomeric G4) (DNA, G4) AGGGTTAGGGTTAGGGTTAGGG; test: CD melting at 295 nm; details: K+ 100 mM KCl, plus potassium phosphate; 20 mM phosphate, pH 6.8; 2 equivalents of ligand; Tm 56.1 alone

Row | Kb ([1]; ligand aggregates in buffer) | DC50 [2] [nM] | ΔTm [3] [°C] | Kb [1] | DC50 ([2]; table prints 0.90 ± 0.04, its ratio 2.01 fits 0.99) [nM] | DC50 ([2]; text prints 1.04) [nM] | Structure (SMILES)
1 | 7.05 ± 1.31 × 10^6 M^−1 | 420 ± 80 | 7.4 | – | – | – | C[n+]1ccc(-c2cc3c(cc2-c2cc[n+](C)cc2)-c2nc-3c(-c3ccccc3)c3ccc([n-]3)c(-c3ccccc3)c3nc(c(-c4ccccc4)c4ccc([n-]4)c2-c2ccccc2)-c2cc(-c4cc[n+](C)cc4)c(-c4cc[n+](C)cc4)cc2-3)cc1.[Zn+2]
2 | – | – | 2.3 | 6.01 ± 1.11 × 10^6 M^−1 | 990 | – | C[n+]1ccc(-c2cc3c(cc2-c2cc[n+](C)cc2)-c2nc-3c(-c3ccccc3)c3ccc([nH]3)c(-c3ccccc3)c3nc(c(-c4ccccc4)c4ccc([nH]4)c2-c2ccccc2)-c2cc(-c4cc[n+](C)cc4)c(-c4cc[n+](C)cc4)cc2-3)cc1
3 | 3.71 ± 1.28 × 10^6 M^−1 | – | 8.5 | – | – | 1020 ± 60 | C[n+]1ccc(-c2cc3c(cc2-c2cc[n+](C)cc2)-c2nc-3c(-c3ccccc3)c3ccc([n-]3)c(-c3ccccc3)c3nc(c(-c4ccccc4)c4ccc([n-]4)c2-c2ccccc2)-c2cc(-c4cc[n+](C)cc4)c(-c4cc[n+](C)cc4)cc2-3)cc1.[Ni+2]
